From patent publication US10259810B2, “N-sulfonylated pyrazolo[3,4-b]pyridin-6-carboxamides and method of use” (AbbVie S.à.r.l., priority 2015, dated 2019) come the findings set out here.

What all share (assay type): cell-based
Test [1] has as its target T1, ΔF508-CFTR (Homo sapiens, UniProt P13569, DEL508-508).
T1 construct: host or cells: CFBE41o-, doxycycline-inducible
Briefly: CFTR cell surface levels using HRP-tagged ΔF508-CFTR expressing CFBE cells, intrinsic corrector capacity. Set-up: % Activation: concentration or dose not given beside the values. To be noted: HRP-tagged ΔF508-CFTR expressing CFBE41o- cells, compound alone (intrinsic corrector capacity), 20 hours at 33° C.; for EC50: read-out: EC50. The procedure, abridged: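 Surface ΔF508-CFTR was measured as HRP chemiluminescence from an extracellular-loop-4 tag, expressed as percent activity between DMSO and a […] corrector control.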

Test [2] addresses T1, ΔF508-CFTR. Briefly: CFTR cell surface levels using HRP-tagged ΔF508-CFTR expressing CFBE cells, in the presence of a co-corrector. As to conditions: HRP-tagged ΔF508-CFTR CFBE cells, in the presence of 3 μM co-corrector; for EC50: read-out: EC50. The procedure, abridged: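 Chemiluminescent read-out of surface HRP (15 min, dark) after PBS washes. Activity is normalized as 100×(sample−DMSO)/(3 μM co-corrector alone−DMSO).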

The target in a further test is T2, CFTR ΔF508 (Homo sapiens, UniProt P13569, DEL508-508).
T2 construct: bronchial epithelial cells isolated from CF patients homozygous for the CFTR ΔF508 mutation; McGill University; Asterand; University of North Carolina hAEC-CF; host or cells: primary human bronchial epithelial cells from CF patients homozygous for ΔF508, differentiated at air-liquid interface
Nature of the test: Chronic TECC assay, primary bronchial epithelial cells of CF patients homozygous for CFTR ΔF508 (corrector, co-corrector and potentiator). As to conditions: chronic TECC, AUC = full area under the curve upon forskolin stimulation; for % Activity at 3 μM (AUC**): test compound at 3 μM; for EC50: read-out: EC50 (nM) (AUC**); for % Activity at 1 μM (AUC**): test compound at 1 μM. The gist of the method:
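Primary bronchial epithelial cells from ΔF508-homozygous CF patients on collagen IV-coated Transwells were chronically treated with test compound plus corrector and potentiator, which were re-added before recording. Ieq was derived from PD and Rt in NaCl-Ringer, pH 7.4, at 37° C, with apical amiloride and bilateral forskolin, recorded every 2 min over 20 min. Ieq increase was normalized to controls, and EC50 was taken from per-well concentrations.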

T2 sequence (P13569 with tags, fused parts or gaps DEL508-508): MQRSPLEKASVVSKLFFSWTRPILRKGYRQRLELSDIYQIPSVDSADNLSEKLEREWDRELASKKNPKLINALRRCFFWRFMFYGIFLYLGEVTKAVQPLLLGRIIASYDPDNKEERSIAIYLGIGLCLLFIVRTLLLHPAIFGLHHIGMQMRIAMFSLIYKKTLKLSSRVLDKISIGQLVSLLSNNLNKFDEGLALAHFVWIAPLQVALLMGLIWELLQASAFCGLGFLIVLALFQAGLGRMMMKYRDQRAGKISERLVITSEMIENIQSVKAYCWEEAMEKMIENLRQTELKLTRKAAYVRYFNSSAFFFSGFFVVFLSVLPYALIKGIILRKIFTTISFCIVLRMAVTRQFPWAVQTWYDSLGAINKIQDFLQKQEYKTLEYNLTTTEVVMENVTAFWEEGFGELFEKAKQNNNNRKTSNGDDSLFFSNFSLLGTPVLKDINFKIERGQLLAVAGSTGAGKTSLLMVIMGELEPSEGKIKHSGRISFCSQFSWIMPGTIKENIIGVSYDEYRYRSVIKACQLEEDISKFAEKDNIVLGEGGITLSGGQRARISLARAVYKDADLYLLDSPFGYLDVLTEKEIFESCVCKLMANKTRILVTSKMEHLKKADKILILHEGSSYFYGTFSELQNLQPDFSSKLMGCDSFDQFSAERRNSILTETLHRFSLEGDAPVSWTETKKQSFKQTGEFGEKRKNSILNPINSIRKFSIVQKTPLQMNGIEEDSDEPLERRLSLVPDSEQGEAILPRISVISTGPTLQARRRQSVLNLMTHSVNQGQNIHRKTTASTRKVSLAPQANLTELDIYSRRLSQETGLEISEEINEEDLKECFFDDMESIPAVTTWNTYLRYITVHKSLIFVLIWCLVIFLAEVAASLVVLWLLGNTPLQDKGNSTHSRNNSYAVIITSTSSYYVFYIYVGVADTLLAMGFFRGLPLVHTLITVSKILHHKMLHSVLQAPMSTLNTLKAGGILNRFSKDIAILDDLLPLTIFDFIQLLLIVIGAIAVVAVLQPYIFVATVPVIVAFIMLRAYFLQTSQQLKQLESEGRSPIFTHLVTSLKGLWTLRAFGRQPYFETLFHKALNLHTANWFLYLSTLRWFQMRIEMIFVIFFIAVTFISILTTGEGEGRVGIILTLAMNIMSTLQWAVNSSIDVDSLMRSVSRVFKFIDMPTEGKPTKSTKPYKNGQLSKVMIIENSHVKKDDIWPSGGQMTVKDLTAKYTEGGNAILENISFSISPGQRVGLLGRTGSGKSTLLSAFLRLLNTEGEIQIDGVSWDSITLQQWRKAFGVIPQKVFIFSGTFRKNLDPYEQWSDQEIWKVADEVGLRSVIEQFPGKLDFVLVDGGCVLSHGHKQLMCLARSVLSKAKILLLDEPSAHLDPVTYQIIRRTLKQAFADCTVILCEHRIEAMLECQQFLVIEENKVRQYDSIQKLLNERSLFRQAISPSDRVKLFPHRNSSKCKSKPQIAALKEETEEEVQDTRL
T1 sequence (P13569 with tags, fused parts or gaps DEL508-508): as above

Usually EC50 stands for the concentration giving half of the maximal effect. As for `O=C(NS(=O)(=O)C1CCOC1)c1cc(N2CCC(CN3CCOCC3)CC2)c2c(C3CCC3)nn(-c3ccc(F)cc3)c2n1` (stereo not drawn) [Compound 495, 3-cyclobutyl-1-(4-fluorophenyl)-4-{4-[(morpholin-4-yl)methyl]piperidin-1-yl}-N-(oxolane-3-sulfonyl)-1H-pyrazolo[3,4-b]pyridine-6-carboxamide], at ΔF508-CFTR [1], the “% Activation” value is on record as 242.05% and the EC50 came to 217 nM. Also, at ΔF508-CFTR [2], the “% Activation” value is recorded as 469.08% and the concentration for a half-maximal effect (EC50) is 66.2 nM. Further, the “% Activity at 3 μM (AUC**)” value on CFTR ΔF508 worked out at 262.4635%.

As for `CN(C)S(=O)(=O)NC(=O)c1cc(N2CCC(N3CCC(C#N)CC3)CC2)c2c(C3CCC3)nn(-c3ccc(F)cc3)c2n1` [Compound 522, 4-(4-cyano[1,4'-bipiperidin]-1'-yl)-3-cyclobutyl-N-(dimethylsulfamoyl)-1-(4-fluorophenyl)-1H-pyrazolo[3,4-b]pyridine-6-carboxamide], on ΔF508-CFTR [1], the “% Activation” value was found to be 317.9% and the EC50 was found to be 114 nM. In addition, on ΔF508-CFTR [2], the “% Activation” value was 525.66% and the half-maximal effective concentration (EC50) was 79.8 nM. Moreover, at CFTR ΔF508, the EC50 came to 21.9 nM and the “% Activity at 1 μM (AUC**)” value was 666.6667%.

Turning to `CN(C)S(=O)(=O)NC(=O)c1cc(N2CCC(N3CC(C#N)C3)CC2)c2c(C3CCC3)nn(-c3ccc(F)cc3)c2n1` [Compound 523, 4-[4-(3-cyanoazetidin-1-yl)piperidin-1-yl]-3-cyclobutyl-N-(dimethylsulfamoyl)-1-(4-fluorophenyl)-1H-pyrazolo[3,4-b]pyridine-6-carboxamide], the “% Activation” value was found to be 236.53% on ΔF508-CFTR [1] and 451.33% on ΔF508-CFTR [2]. For the same molecule, the results for the EC50 on ΔF508-CFTR [1] and at ΔF508-CFTR [2] were 124 nM and 100 nM, respectively. The “% Activity at 3 μM (AUC**)” value on CFTR ΔF508 came to 460.2177%.

In the case of `CN(C)S(=O)(=O)NC(=O)c1cc(N2CCC(N3CCC(F)CC3)CC2)c2c(C3CCC3)nn(-c3ccc(F)cc3)c2n1` [Compound 525, 3-cyclobutyl-N-(dimethylsulfamoyl)-4-(4-fluoro[1,4'-bipiperidin]-1'-yl)-1-(4-fluorophenyl)-1H-pyrazolo[3,4-b]pyridine-6-carboxamide], on ΔF508-CFTR [1], the “% Activation” value was determined as 274.75% and the EC50 was found to be 138 nM. At ΔF508-CFTR [2], the “% Activation” value stood at 460.3% and the EC50 was found to be 74 nM. On CFTR ΔF508, the concentration giving a half-maximal response (EC50) came to 50.3 nM and the “% Activity at 1 μM (AUC**)” value is reported as 477.2665%.

Regarding `CN(C)S(=O)(=O)NC(=O)c1cc(N2CCC(N3CCC(F)(F)CC3)CC2)c2c(C3CCC3)nn(-c3ccc(F)cc3)c2n1` [Compound 526, 3-cyclobutyl-4-(4,4-difluoro[1,4'-bipiperidin]-1'-yl)-N-(dimethylsulfamoyl)-1-(4-fluorophenyl)-1H-pyrazolo[3,4-b]pyridine-6-carboxamide], the “% Activation” value at ΔF508-CFTR [1] is reported as 269.23%; at ΔF508-CFTR [2], 472.58%. Besides, the EC50 on ΔF508-CFTR [1] turned out to be 153 nM; at ΔF508-CFTR [2] it was 107 nM; on CFTR ΔF508, 14.2 nM. For the same molecule, the “% Activity at 1 μM (AUC**)” value on CFTR ΔF508 turned out to be 400%.

In the case of `CN(C)S(=O)(=O)NC(=O)c1cc(N2CCC(N3CCOC(C#N)C3)CC2)c2c(C3CCC3)nn(-c3ccc(F)cc3)c2n1` (stereo not drawn) [Compound 527, 4-[4-(2-cyanomorpholin-4-yl)piperidin-1-yl]-3-cyclobutyl-N-(dimethylsulfamoyl)-1-(4-fluorophenyl)-1H-pyrazolo[3,4-b]pyridine-6-carboxamide], on ΔF508-CFTR [1], the “% Activation” value was found to be 295.95% and the EC50 turned out to be 79.1 nM. Also, on ΔF508-CFTR [2], the “% Activation” value is reported as 500% and the concentration for a half-maximal effect (EC50) was found to be 53.8 nM. In addition, at CFTR ΔF508, the “% Activity at 1 μM (AUC**)” value was 370.693%.

Turning to `CC(C)Oc1cc(-n2nc(C3CCC3)c3c(N4CCC(N5CCOCC5)CC4)cc(C(=O)NS(=O)(=O)N(C)C)nc32)ccn1` [Compound 529, 3-cyclobutyl-N-(dimethylsulfamoyl)-4-[4-(morpholin-4-yl)piperidin-1-yl]-1-{2-[(propan-2-yl)oxy]pyridin-4-yl}-1H-pyrazolo[3,4-b]pyridine-6-carboxamide], on ΔF508-CFTR [1], the “% Activation” value was found to be 278.55% and the EC50 came to 60.6 nM. Also, on ΔF508-CFTR [2], the “% Activation” value is given as 444.13% and the EC50 came out at 22.6 nM. Also, on CFTR ΔF508, the EC50 came to 19.1 nM and the “% Activity at 1 μM (AUC**)” value came out at 520%.

In the case of `CC(C)Oc1cc(-n2nc(C3CCC3)c3c(N4CCC(N5CCOCC5)CC4)cc(C(=O)NS(C)(=O)=O)nc32)ccn1` [Compound 530, 3-cyclobutyl-N-(methanesulfonyl)-4-[4-(morpholin-4-yl)piperidin-1-yl]-1-{2-[(propan-2-yl)oxy]pyridin-4-yl}-1H-pyrazolo[3,4-b]pyridine-6-carboxamide], the “% Activation” value was determined as 323.1% at ΔF508-CFTR [1] and 464.6% at ΔF508-CFTR [2]. Further, the EC50 on ΔF508-CFTR [1] worked out at 54.4 nM; on ΔF508-CFTR [2], 23 nM. The “% Activity at 1 μM (AUC**)” value at CFTR ΔF508 is 326.6667%.

For the molecule `Cc1cc(N2CCN(c3cc(C(=O)NS(=O)(=O)N(C)C)nc4c3c(C3CCC3)nn4C3CCCCC3)CC2)ccn1` [Compound 535, 3-cyclobutyl-1-cyclohexyl-N-(dimethylsulfamoyl)-4-[4-(2-methylpyridin-4-yl)piperazin-1-yl]-1H-pyrazolo[3,4-b]pyridine-6-carboxamide], at ΔF508-CFTR [1], the “% Activation” value was found to be 385.8% and the EC50 came out at 389 nM. Further, at ΔF508-CFTR [2], the “% Activation” value is 670.35% and the EC50 is 1250 nM. In addition, the “% Activity at 1 μM (AUC**)” value on CFTR ΔF508 was found to be 335.0294%.

Turning to `O=C(NS(=O)(=O)N1CCC(F)C1)c1cc(N2CCC(N3CCOCC3)CC2)c2c(C3CCC3)nn(-c3ccc(F)cc3)c2n1` (stereo not drawn) [Compound 537, 3-cyclobutyl-1-(4-fluorophenyl)-N-(3-fluoropyrrolidine-1-sulfonyl)-4-[4-(morpholin-4-yl)piperidin-1-yl]-1H-pyrazolo[3,4-b]pyridine-6-carboxamide], on ΔF508-CFTR [1], the “% Activation” value is reported as 214.5% and the EC50 was found to be 112 nM. On ΔF508-CFTR [2], the “% Activation” value came to 417.1% and the EC50 came out at 50.8 nM. The “% Activity at 3 μM (AUC**)” value on CFTR ΔF508 was 261.5724%.

As to `CN(C)S(=O)(=O)NC(=O)c1cc(N2CCC(N3CCC(F)C3)CC2)c2c(C3CCC3)nn(-c3ccc(F)cc3)c2n1` (stereo not drawn) [Compound 541, 3-cyclobutyl-N-(dimethylsulfamoyl)-1-(4-fluorophenyl)-4-[4-(3-fluoropyrrolidin-1-yl)piperidin-1-yl]-1H-pyrazolo[3,4-b]pyridine-6-carboxamide], the “% Activation” value on ΔF508-CFTR [1] was 231.7%; at ΔF508-CFTR [2], 457.2%. The EC50 at ΔF508-CFTR [1] was found to be 444 nM; at ΔF508-CFTR [2], 115 nM. Also, the “% Activity at 1 μM (AUC**)” value at CFTR ΔF508 worked out at 320%.

As for `CC(C)Oc1nn(C2CCCCC2)c2nc(C(=O)NS(=O)(=O)N(C)C)cc(-c3ccc(C(=O)N4CCC(N(C)C)CC4)cc3)c12` [Compound 546, 1-cyclohexyl-4-{4-[4-(dimethylamino)piperidine-1-carbonyl]phenyl}-N-(dimethylsulfamoyl)-3-[(propan-2-yl)oxy]-1H-pyrazolo[3,4-b]pyridine-6-carboxamide], on ΔF508-CFTR [1], the “% Activation” value was 138.05% and the EC50 came to 325 nM. Further, at ΔF508-CFTR [2], the “% Activation” value is recorded as 335.3% and the EC50 was 182 nM. On CFTR ΔF508, the “% Activity at 3 μM (AUC**)” value worked out at 282.0317%.

As for `CN(C)S(=O)(=O)NC(=O)c1cc(N2CCC(N3CCN(C4CC4)CC3)CC2)c2c(C3CCC3)nn(-c3ccccc3)c2n1` [Compound 549, 3-cyclobutyl-4-[4-(4-cyclopropylpiperazin-1-yl)piperidin-1-yl]-N-(dimethylsulfamoyl)-1-phenyl-1H-pyrazolo[3,4-b]pyridine-6-carboxamide], at ΔF508-CFTR [1], the “% Activation” value is given as 276.9% and the EC50 was determined as 233 nM. Also, at ΔF508-CFTR [2], the “% Activation” value is recorded as 476.35% and the EC50 came to 180 nM. Also, on CFTR ΔF508, the EC50 is 243 nM and the “% Activity at 1 μM (AUC**)” value is 373.3333%.

In the case of `CN1CCN(c2ccc(-c3cc(C(=O)NS(=O)(=O)N(C)C)nc4c3c(C3CCC3)nn4C3CCCCC3)cn2)CC1` [Compound 551, 3-cyclobutyl-1-cyclohexyl-N-(dimethylsulfamoyl)-4-[6-(4-methylpiperazin-1-yl)pyridin-3-yl]-1H-pyrazolo[3,4-b]pyridine-6-carboxamide], on ΔF508-CFTR [1], the “% Activation” value is listed as 197.8% and the EC50 is 763 nM. On ΔF508-CFTR [2], the “% Activation” value was determined as 403.1% and the EC50 was found to be 382 nM. Besides, the “% Activity at 1 μM (AUC**)” value on CFTR ΔF508 is on record as 239.0643%.
